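The compound was tested at five concentrations on cells cultured in 96-well plates, with a 48-hour exposure period. Abbreviation: GI50, concentration required for 50% inhibition of growth.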 Calls of active or inactive are those of the source. No stated cut-off is given here; in the data, active = GI50 up to about 1.1 µM and inactive = higher.

Among the test systems are A549; CAKI-1; KM12; MCF7; NCI-H23; NCI-H460; OVCAR-3; OVCAR-8; SK-MEL-28; SK-MEL-5; SN12C; SNB-75; SW-620; TK-10; UACC-257; UO-31; HCC 2998; Malme-3M; OVCAR-4; RXF 393.
Assay in all cases: growth of human tumour cells (NCI), 48 h

`Cn1c(=O)n2n(c1=O)C(C)(C13CC4CC(CC(C4)C1)C3)C13CC4CC(CC1C4)CC23` (stereo not given): the GI50 in the test with A549, with CAKI-1, with KM12, in the test with MCF7, in the test with NCI-H23 and in the test on NCI-H460 was > 100 µM (inactive) each time. In addition, the GI50 in the test on OVCAR-3, in the test with OVCAR-8, with SK-MEL-28, with SK-MEL-5, in the test with SN12C and with SNB-75 was > 100 µM (inactive) each time. The GI50 in the test on SW-620, with TK-10, with UACC-257 and with UO-31 was > 100 µM (inactive) in each case.
Turning to `COC12OC3(C4OC41)C(C(=O)O[C@H]3CO[Si](C)(C)C(C)(C)C)C2C(=O)Oc1ccccc1` (stereo not given in full), the GI50 in the test on A549 is > 100 µM (inactive); with CAKI-1 it was > 100 µM (inactive); in the test on HCC 2998, > 100 µM (inactive); in the test on KM12, > 100 µM (inactive); with MCF7, > 100 µM (inactive); in the test with Malme-3M, 92 µM (inactive). For the same molecule, the GI50 with NCI-H23, in the test on NCI-H460, in the test with OVCAR-3, in the test with OVCAR-4, in the test on OVCAR-8 and in the test on SK-MEL-28 was > 100 µM (inactive) throughout. Further, the GI50 with SK-MEL-5, in the test on SN12C, in the test on SNB-75, in the test on SW-620, in the test with TK-10 and with UACC-257 was > 100 µM (inactive) each time. The GI50 in the test on UO-31 was > 100 µM (inactive).
As for `Cc1nc(N(CCO)CCO)c2sc(=S)n(-c3ccccc3)c2n1`, the GI50 in the test on A549, in the test on HCC 2998, in the test on KM12, with Malme-3M, with NCI-H23 and in the test with NCI-H460 was > 100 µM (inactive) in each case. The GI50 in the test on OVCAR-3 is > 100 µM (inactive); with OVCAR-8, > 100 µM (inactive); with SK-MEL-28, > 100 µM (inactive); in the test with SK-MEL-5, > 100 µM (inactive); in the test with SNB-75, 10.8 µM (inactive); with SW-620, > 100 µM (inactive). The GI50 in the test on TK-10, in the test on UACC-257 and in the test on UO-31 was > 100 µM (inactive) throughout.
On to `COc1ccc(-c2c(-c3ccccc3)c(C)c3ccccn23)cc1`, for which the GI50 in the test with A549 is 87.3 µM (inactive); with CAKI-1 it was > 100 µM (inactive); with HCC 2998, > 100 µM (inactive); with KM12 it was 26.3 µM (inactive); in the test on MCF7, 57.7 µM (inactive); in the test with Malme-3M, 95.9 µM (inactive). For the same molecule, the GI50 is > 100 µM (inactive) in the test on NCI-H23; 59.2 µM (inactive) with NCI-H460; > 100 µM (inactive) with OVCAR-3; > 100 µM (inactive) with OVCAR-4; > 100 µM (inactive) in the test on OVCAR-8; 79.8 µM (inactive) in the test on SK-MEL-28. Besides, the GI50 was 77.8 µM (inactive) in the test with SK-MEL-5; > 100 µM (inactive) with SN12C; > 100 µM (inactive) in the test with SNB-75; 58.9 µM (inactive) with SW-620; > 100 µM (inactive) in the test on TK-10; 49.9 µM (inactive) in the test with UACC-257. Moreover, in the test with UO-31, the GI50 was > 100 µM (inactive).
Consider `Cc1nc2c(nc1Cl)nc(Oc1ccc(Cl)cc1)c1ccccc12`, for which the GI50 in the test with A549 is 34.6 µM (inactive); with CAKI-1, > 100 µM (inactive); in the test on HCC 2998 it was > 100 µM (inactive); in the test on KM12 it was > 100 µM (inactive); with Malme-3M, 74.3 µM (inactive); in the test on NCI-H23, 45.8 µM (inactive). Moreover, the GI50 in the test with NCI-H460 was 62.4 µM (inactive); in the test on OVCAR-3, > 100 µM (inactive); in the test on OVCAR-4, 32 µM (inactive); in the test with OVCAR-8, 23.9 µM (inactive); with SK-MEL-28, > 100 µM (inactive); with SK-MEL-5 it was 57.5 µM (inactive). In addition, the GI50 with SN12C was 43.6 µM (inactive); with SNB-75, 26.7 µM (inactive); in the test on SW-620, 50.4 µM (inactive); in the test on UACC-257, > 100 µM (inactive); in the test with UO-31, 27 µM (inactive).
`CC12CCC3C(CCC4CC(OC(=O)Cc5ccc(N(CCCl)CCCl)cc5)CCC43C)C1CCC(=O)N2` (stereo not given): the GI50 in the test with A549 is 15.5 µM (inactive); in the test on CAKI-1, 15.9 µM (inactive); in the test on HCC 2998, 18.9 µM (inactive); in the test with KM12, 18.2 µM (inactive); with Malme-3M, 18.2 µM (inactive); in the test with NCI-H23 it was 13 µM (inactive). Besides, the GI50 in the test on NCI-H460 is 7.26 µM (inactive); in the test on OVCAR-3, 18.2 µM (inactive); with OVCAR-4, 15.9 µM (inactive); in the test with OVCAR-8, 15.8 µM (inactive); in the test with RXF 393 it was 14.5 µM (inactive); with SK-MEL-28, 17.1 µM (inactive). The GI50 is 18.2 µM (inactive) in the test with SK-MEL-5; 15.6 µM (inactive) in the test with SN12C; 15 µM (inactive) with SNB-75; 14 µM (inactive) with SW-620; 20.6 µM (inactive) with TK-10; 19.7 µM (inactive) in the test on UO-31.
For the molecule `O=C1C2c3[nH]c4ccccc4c3C3CCSCC3C2C(=O)N1c1ccccc1` (stereo not given), the GI50 in the test with A549, in the test with CAKI-1, in the test with KM12, in the test on Malme-3M, in the test on NCI-H23 and in the test on NCI-H460 was > 100 µM (inactive) throughout. The GI50 with OVCAR-3 is > 100 µM (inactive); with OVCAR-4, > 100 µM (inactive); with OVCAR-8, > 100 µM (inactive); with RXF 393 it was 25.8 µM (inactive); with SK-MEL-28, > 100 µM (inactive); with SK-MEL-5, > 100 µM (inactive). In addition, the GI50 with SN12C is > 100 µM (inactive); with SNB-75, 15.9 µM (inactive); with SW-620, > 100 µM (inactive); with TK-10, > 100 µM (inactive); in the test on UACC-257, > 100 µM (inactive); in the test on UO-31, > 100 µM (inactive).
With `O=C(c1ccccc1)c1cc(Cl)ccc1NCn1nnc2ccccc21`, the GI50 with A549 is 46 µM (inactive); in the test on HCC 2998 it was 47.8 µM (inactive); with KM12 it was 33.2 µM (inactive); in the test with NCI-H23, > 100 µM (inactive); in the test with NCI-H460, 69.5 µM (inactive); with OVCAR-3, 93.3 µM (inactive). The GI50 in the test with OVCAR-4 is 9.46 µM (inactive); with OVCAR-8, > 100 µM (inactive); in the test with RXF 393, 30.3 µM (inactive); in the test with SN12C, 76.4 µM (inactive); in the test on SNB-75, 35.1 µM (inactive); in the test with SW-620, 48.2 µM (inactive). The GI50 with TK-10 is 81.1 µM (inactive); with UACC-257, 55 µM (inactive); in the test with UO-31, 35.8 µM (inactive).
As to `CCCC(=O)Nc1cc2c3c(c1)CCCN3CCC2`, the GI50 with A549 is > 10 µM (inactive); in the test with CAKI-1 it was > 10 µM (inactive); in the test with HCC 2998 it was > 10 µM (inactive); with KM12, > 10 µM (inactive); with MCF7, 6.08 µM (inactive); in the test with Malme-3M, > 10 µM (inactive). For the same molecule, the GI50 is 3.77 µM (inactive) with NCI-H23; > 10 µM (inactive) in the test on OVCAR-3; > 10 µM (inactive) in the test with OVCAR-4; > 10 µM (inactive) in the test on OVCAR-8; > 10 µM (inactive) in the test on SK-MEL-28; > 10 µM (inactive) with SK-MEL-5. Also, the GI50 with SN12C, with SNB-75, with SW-620, in the test with TK-10 and in the test on UACC-257 was > 10 µM (inactive) throughout.
For the molecule `CC(C)NC(=O)OCc1nnn2c1CCC2`, the GI50 with A549, in the test with HCC 2998, in the test on KM12, with Malme-3M, with NCI-H23 and with NCI-H460 was > 100 µM (inactive) in each case. In addition, the GI50 in the test on OVCAR-3, in the test on OVCAR-4, with OVCAR-8, in the test with RXF 393, in the test on SK-MEL-28 and in the test on SK-MEL-5 was > 100 µM (inactive) in each case. Further, the GI50 in the test with SN12C, in the test on SNB-75, in the test with SW-620, in the test on TK-10, in the test with UACC-257 and in the test with UO-31 was > 100 µM (inactive) throughout.
On to `O=S(O)CCCSSSCCCS(=O)O`, for which the GI50 with HCC 2998, in the test on KM12, in the test with Malme-3M, with NCI-H23, in the test with NCI-H460 and in the test with OVCAR-3 was > 100 µM (inactive) throughout. Also, the GI50 in the test with OVCAR-4, in the test with RXF 393, in the test on SK-MEL-28, in the test on SN12C, in the test with SNB-75 and in the test with TK-10 was > 100 µM (inactive) each time. Also, the GI50 in the test with UACC-257 and in the test on UO-31 was > 100 µM (inactive) in each case.
With `CC(=O)NC1=C(C)C(=O)c2c(nc3n2CCC3OC(=O)c2ccccc2)C1=O` (stereo not given), the GI50 in the test on A549 is 1.7 µM (inactive); with CAKI-1, 2.6 µM (inactive); in the test with HCC 2998, 4.81 µM (inactive); in the test on KM12, 2.61 µM (inactive); in the test with Malme-3M, 1.64 µM (inactive); with NCI-H23, 1.67 µM (inactive). In addition, the GI50 in the test on NCI-H460 is 2.37 µM (inactive); in the test on OVCAR-3, 0.223 µM (active); in the test with OVCAR-4 it was 1.52 µM (inactive); in the test with OVCAR-8 it was 1.3 µM (inactive); in the test with RXF 393, 3.79 µM (inactive); with SK-MEL-28, 1.86 µM (inactive). In addition, the GI50 in the test on SK-MEL-5 is 1.75 µM (inactive); in the test on SN12C, 1.79 µM (inactive); with SNB-75 it was 3.58 µM (inactive); in the test with SW-620, 1.79 µM (inactive); with TK-10, 6.43 µM (inactive); in the test with UACC-257, 1.54 µM (inactive). Besides, the GI50 in the test with UO-31 was 2.82 µM (inactive).

The record behind these values is ChEMBL document CHEMBL1201862, “PubChem BioAssay data set” (2004).
